Tests used:
Assay type in all cases: cell-based
[1] = test system: HCV genotype 1a subgenomic replicon; experiment: Anti-Hepatitis C replicon assay, genotype 1a (luciferase); settings: Hepatitis C virus; luciferase activity measured 48 hours later; read-out: HCV Genotype 1A Replicon pEC50 (converted)
Method: (§1) Compounds were assayed for activity against HCV using the genotype 1a and 1b subgenomic replicon model systems. Stable cell lines bearing the genotype 1a and 1b replicons were used for screening of compounds. Both replicons are bicistonic and contain the firefly luciferase gene. The ET cell line is stably transfected with RNA transcripts harboring a I389luc-ubi-neo/NS3-3′/ET replicon with firefly luciferase-ubiquitin-neomycin phosphotransferase fusion protein and EMCV-IRES driven NS3-5B polyprotein containing the cell culture adaptive mutations (E1202G; T1280I; K1846T) (Krieger at al, 2001 and unpublished). The genotype 1a replicon is a stable cell line licensed from Apath LLC, modified to contain the firefly luciferase gene. The cells were grown in DMEM, supplemented with 10% fetal calf serum, 2 mM Glutamine, Penicillin (100 IU/mL)/Streptomycin (100 μg/mL), 1× nonessential amino acids, and 250-500 μg/mL G418 (“Geneticin”). They were all available through Life Technologies (Bethesda, Md.). The cells were plated at 0.5×10^4 cells/well in 384 well plates containing compounds. The final concentration of compounds ranged between 0.03 pM to 50 μm and the final DMSO concentration of 0.5-1%.
(§2) Luciferase activity was measured 48 hours later by adding a Steady glo (Promega, Madison, Wis.). Percent inhibition of replication data was plotted relative to no compound control. Under the same condition, cytotoxicity of the compounds was determined using cell titer glo (Promega, Madison, Wis.). IC50s were determined from a 10 point dose response curve using 3-4-fold serial dilution for each compound, which spans a concentration range>1000 fold. BioAssay determines the level of inhibition for each compound by normalizing cross-talk corrected plate values against the negative (low or background, cells with no compound present) and positive (high DMSO, no cells) controls to determine Percent Inhibition:
(§3) These normalized values are exported to IC50 where they are plotted against the molar compound concentrations using the standard four parameter logistic equation: […]

[2] = test system: ISG56 (Interferon-Stimulated Gene 56) promoter ISRE; experiment: ISG56 luciferase reporter assay in HEK 293 cells; settings: Homo sapiens, HEK293; HEK 293 reporter, 24 hours; 100% = small molecule control test compound; read-out: ISG56 (Average Max Response) %
Method: Compounds of the present invention were tested against a HEK (Human Embryonic Kidney) 293 cell line that was stably transfected with a firefly luciferase reporter gene under the control of the ISG56 (Interferon-Stimulated Gene 56) promoter ISRE (Interferon-Stimulated Response Element). While the ISRE is in the opposite orientation of the wild type promoter, literature^1 cites that the response elements are pallindromic and function properly in either orientation. ^1Reich, N., Evans, B., Levy, D., Fahey, D., Knight, E., Damell, J. E. (1987) Interferon-induced transcription of a gene encoding a 15-kDa protein depends on an upstream enhancer element. See, Proc. Natl. Acad. Sci. 84, (6394-6398).
In preparation for the assay, test compounds were serially diluted 3-fold in DMSO from a typical top concentration of 5 mM and plated at 0.2 μL in a 384-well, polystyrene, tissue culture treated plate with lid (Greiner Bio-One North America, Inc., Monroe, N.C.) to generate 11-point dose response curves in the assay. Low control wells (0% response) contained 0.2 μL of DMSO alone, and high control wells (100% response) contained 0.2 μL of a small molecule control test compound.
Frozen stocks of the transfected HEK 293 cells were washed and recovered in DMEM I Ham's F-12 media (Invitrogen Corporation, Carlsbad, Calif.) supplemented with 10% v/v qualified Australian fetal bovine serum (FBS) (Invitrogen Corporation, Carlsbad, Calif.), 1× GlutaMAX™ (Invitrogen Corporation, Carlsbad, Calif.), 1×MEM non-essential amino acids (NEAA) (Invitrogen Corporation, Carlsbad, Calif.) and 500 μg/ml Geneticin® (Invitrogen Corporation, Carlsbad, Calif.). The cells were diluted to 500,000 cells/mL in the supplemented DMEM/Ham's F-12 media, and 20 μL of the cell suspension were added to each well of the previously prepared 384-well compound plate, resulting in 10,000 cells/well. The plate, with lid, were placed in a 37° C., 5% CO2 humidified incubator for 24 hours.
Following incubation, the plates were removed and placed on the bench top without lids to equilibrate to room temperature for 30 minutes. Steady-Glo® (Promega Corporation, Madison, Wis.) was prepared according to the manufacturer's instructions, and 10 μL were added to each plate well. After a twenty minute incubation at room temperature, luminescence was read on a ViewLux™ (PerkinElmer Inc., Waltham, Mass.).
The data for dose responses were plotted as % activation versus compound concentration following normalization using the formula 100*((U−C1)/(C2−C1)), where U was the unknown value, C1 was the average of the low (0% response) control wells and C2 was the average of the high (100% response) control wells. Curve fitting was performed with the equation y=A+((B−A)/(1+(10^x/10^C)^D)), where A was the minimum response, B was the maximum response, C was the log(EC50) and D was the Hill slope. The results for each test compound were recorded as pEC50 values (—C in the above equation) and as max response values at a given concentration.

[3] = test system: HCV genotype 1b subgenomic replicon; experiment: Anti-Hepatitis C replicon assay, genotype 1b (luciferase); settings: Hepatitis C virus; luciferase activity measured 48 hours later; read-out: HCV Genotype 1B Replicon pEC50 (converted)
Method: as §1, §2, §3

| Compound | EC50 [1] | Emax [2] | EC50 [3] |
| --- | --- | --- | --- |
| CC(C)c1cc(C(F)(F)F)c2ccc3nc(-c4nnco4)cn3c2n1 [Compound 3, 2-[2-(propan-2-yl)-4-(trifluoromethyl)imidazo[1,2-a]1,8-naphthyridin-8-yl]-1,3,4-oxadiazole] | 100 nM | 408% | 316 nM |
| FC(F)(F)c1cc(C(F)(F)F)c2ccc3nc(-c4cnco4)cn3c2n1 [Compound 4, 5-[2,4-bis(trifluoromethyl)imidazo[1,2-a]1,8-naphthyridin-8-yl]-1,3-oxazole] | 126 nM | 178% | 398 nM |
| FC(F)(F)c1cc(C2CC2)nc2c1ccc1nc(-c3nnco3)cn12 [Compound 5, 2[2-cyclopropyl-4-(trifluoromethyl)imidazo[1,2-a]1,8-naphthyridin-8-yl]-1,3,4-oxadiazole] | 100 nM | 151% | 398 nM |
| FC(F)(F)c1cc(-c2ccsc2)nc2c1ccc1nc(-c3nnco3)cn12 [Compound 6, 2-[2-(thiophen-3-yl)-4-(trifluoromethyl)imidazo[1,2-a]1,8-naphthyridin-8-yl]-1,3,4-oxadiazole] | 200 nM | 7.75% | 501 nM |
| Cc1cc(C(F)(F)F)c2ccc3nc(-c4nnco4)cn3c2n1 [Compound 7, 2-[2-methyl-4-(trifluoromethyl)imidazo[1,2-a]1,8-naphthyridin-8-yl]-1,3,4-oxadiazole] | 1260 nM |  | 631 nM |
| FC(F)(F)c1cc(C(F)(F)F)c2ccc3[nH]c(-c4nnco4)cc3c2n1 [Compound 8, 2-[2,4-bis(trifluoromethyl)-7H-pyrrolo[2,3-h]quinolin-8-yl]-1,3,4-oxadiazole] | 631 nM | 2.5% | 631 nM |
| Cc1c(-c2nnco2)nc2ccc3c(C(F)(F)F)cc(C(F)(F)F)nc3n12 [Compound 9, 2-[9-methyl-2,4-bis(trifluoromethyl)imidazo[1,2-a]1,8-naphthyridin-8-yl]-1,3,4-oxadiazole] | 158 nM | 262% | 794 nM |
| CCOc1cc(C(F)(F)F)c2ccc3nc(-c4nnco4)cn3c2n1 [Compound 10, 2-[2-ethoxy-4-(trifluoromethyl)imidazo[1,2-a]1,8-naphthyridin-8-yl]-1,3,4-oxadiazole] | 1000 nM | 10% | 794 nM |
| FC(F)(F)c1cc(-c2ccoc2)nc2c1ccc1nc(-c3nnco3)cn12 [Compound 12, 2-[2-(furan-3-yl)-4-(trifluoromethyl)imidazo[1,2-a]1,8-naphthyridin-8-yl]-1,3,4-oxadiazole] | 398 nM | 13.5% | 794 nM |
| CCc1cc(C(F)(F)F)c2ccc3nc(-c4nnco4)cn3c2n1 [Compound 13, 2-[2-ethyl-4-(trifluoromethyl)imidazo[1,2-a]1,8-naphthyridin-8-yl]-1,3,4-oxadiazole] | 398 nM | 346% | 1000 nM |
| FC(F)(F)c1cc(C(F)(F)F)c2ccc3cc(-c4nnco4)n(Cc4ccccc4)c3c2n1 [Compound 14, 2-[1-benzyl-6,8-bis(trifluoromethyl)-1H-pyrrolo[3,2-h]quinolin-2-yl]-1,3,4-oxadiazole] | 7940 nM | 10% | 1000 nM |
| FC(F)(F)c1cc(C(F)(F)F)c2ccc3cc(-c4nnco4)[nH]c3c2n1 [Compound 15, 2-[6,8-bis(trifluoromethyl)-1H-pyrrolo[3,2-h]quinolin-2-yl]-1,3,4-oxadiazole] | 398 nM | 63.5% | 1000 nM |
| Cn1c(-c2nnco2)cc2ccc3c(C(F)(F)F)cc(C(F)(F)F)nc3c21 [Compound 16, 2-[1-methyl-6,8-bis(trifluoromethyl)-1H-pyrrolo[3,2-h]quinolin-2-yl]-1,3,4-oxadiazole] | 251 nM | 35.5% | 1000 nM |
| FC(F)(F)c1cc(-c2ccccc2)nc2c1ccc1nc(-c3nnco3)cn12 [Compound 17, 2-[2-phenyl-4-(trifluoromethyl)imidazo[1,2-a]1,8-naphthyridin-8-yl]-1,3,4-oxadiazole] | 501 nM | 31.5% | 1260 nM |
| FC(F)(F)c1cc(C(F)(F)F)c2ccc3nc(-c4nnco4)c(Cl)n3c2n1 [Compound 18, 2-[9-chloro-2,4-bis(trifluoromethyl)imidazo[1,2-a]1,8-naphthyridin-8-yl]-1,3,4-oxadiazole] | 251 nM | 27% | 1580 nM |
| FC(F)(F)c1cc(-c2cccnc2)nc2c1ccc1nc(-c3nnco3)cn12 [Compound 19, 3-[8-(1,3,4-oxadiazol-2-yl)-4-(trifluoromethyl)imidazo[1,2-a]1,8-naphthyridin-2-yl]pyridine] | 12600 nM | 9% | 1580 nM |
| FC(F)Oc1cc(C(F)(F)F)c2ccc3nc(-c4nnco4)cn3c2n1 [Compound 20, 2-[2-(difluoromethoxy)-4-(trifluoromethyl)imidazo[1,2-a]1,8-naphthyridin-8-yl]-1,3,4-oxadiazole] | 1000 nM | 13.5% | 1580 nM |
| O=C(C1CCC1)n1c(-c2nnco2)cc2ccc3c(C(F)(F)F)cc(C(F)(F)F)nc3c21 [Compound 21, 2-[1-cyclobutanecarbonyl-6,8-bis(trifluoromethyl)-1H-pyrrolo[3,2-h]quinolin-2-yl]-1,3,4-oxadiazole] | 631 nM | 70% | 2000 nM |
| CC(=O)n1c(-c2nnco2)cc2ccc3c(C(F)(F)F)cc(C(F)(F)F)nc3c21 [Compound 22, 1-[2-(1,3,4-oxadiazol-2-yl)-6,8-bis(trifluoromethyl)-1H-pyrrolo[3,2-h]quinolin-1-yl]ethan-1-one] | 501 nM | 60.5% | 2000 nM |
| CC(C)c1cc(Cl)c2ccc3nc(-c4nnco4)cn3c2n1 [Compound 23, 2-[4-chloro-2-(propan-2-yl)imidazo[1,2-a]1,8-naphthyridin-8-yl]-1,3,4-oxadiazole] | 1260 nM | 110% | 3160 nM |
| CC(C)c1cc(C(C)C)c2ccc3nc(-c4nnco4)cn3c2n1 [Compound 30, 2-[2,4-bis(propan-2-yl)imidazo[1,2-a]1,8-naphthyridin-8-yl]-1,3,4-oxadiazole] | 316 nM |  | 1000 nM |
| CC(C)c1cc(-c2ccccc2)c2ccc3nc(-c4nnco4)cn3c2n1 [Compound 31, 2-[4-phenyl-2-(propan-2-yl)imidazo[1,2-a]1,8-naphthyridin-8-yl]-1,3,4-oxadiazole] | 398 nM |  | 1260 nM |

— patent publication US20140249143A1, “Compounds And Methods For Enhancing Innate Immune Responses” (GlaxoSmithKline LLC, priority 2011, published 2014)
